Source: ChEMBL document CHEMBL1909294, “Translating clinical findings into knowledge in drug safety evaluation--drug induced liver injury prediction system (DILIps)” (PLoS Comput Biol, 2011)
*1 amine or outer side, *2 acyl side, *3 side chain or, on linkers, in order; H or OH if unused. Where a SMILES comes first, the peptide text is derived from it. Bridges are numbered along the chain shown (N, C = ends). [ ]: non-standard residue; d: D form. The star is where a group is joined. ξ: configuration not given here. X2 = N=C1NCCC([C@H](N[*:1])C(=O)[*:2])N1; ΔAla(Z-3-ureido) = NC(=O)N/C=C(\N)C(=O)O; ξβ3hOrn = NCCCC(N)CC(=O)*; Dap = NC[C@H](N)C(=O)O

Assays:
[1] = test system: Hepatotoxicity;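 on HepSE bilirubinemia: bilirubinemia hepatic side effect score drawn from the DILIps training data, a prediction system for drug-induced liver injury; call rule not given here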;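 on HepSE cholecystitis: Cholecystitis-related hepatic side effect score drawn from the DILIps (drug-induced liver injury prediction) training data set; call rule not given here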;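 on HepSE cholelithiasis: hepatic side effect score for cholelithiasis, drawn from the DILIps training data for predicting drug-induced liver injury; call rule not given here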;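 on HepSE cirrhosis: cirrhosis hepatic side effect score taken from the DILIps (drug-induced liver injury prediction) training set; call rule not given here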;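 on HepSE elevated liver function tests: hepatic side effect score for raised liver function tests, as recorded in the DILIps training set used for predicting drug-induced liver injury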; on HepSE hepatic failure: call rule not given here;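 on HepSE hepatomegaly: hepatic side effect score for hepatomegaly, taken from the training set of the DILIps drug-induced liver injury prediction system; call rule not given here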
[2] = test system: Hepatotoxicity; remark: listed apart in the source;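 on HepSE bilirubinemia: bilirubinemia hepatic side effect score drawn from the DILIps training data, a prediction system for drug-induced liver injury; call rule not given here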;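 on HepSE cholecystitis: Cholecystitis-related hepatic side effect score drawn from the DILIps (drug-induced liver injury prediction) training data set; call rule not given here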;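 on HepSE cholelithiasis: hepatic side effect score for cholelithiasis, drawn from the DILIps training data for predicting drug-induced liver injury; call rule not given here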;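 on HepSE cirrhosis: cirrhosis hepatic side effect score taken from the DILIps (drug-induced liver injury prediction) training set; call rule not given here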;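 on HepSE elevated liver function tests: hepatic side effect score for raised liver function tests, as recorded in the DILIps training set used for predicting drug-induced liver injury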; on HepSE hepatic failure: call rule not given here;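 on HepSE hepatomegaly: hepatic side effect score for hepatomegaly, taken from the training set of the DILIps drug-induced liver injury prediction system; call rule not given here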
[3] = test system: Hepatotoxicity; remark: listed apart in the source;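 on HepSE bilirubinemia: bilirubinemia hepatic side effect score drawn from the DILIps training data, a prediction system for drug-induced liver injury; call rule not given here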;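 on HepSE cholecystitis: Cholecystitis-related hepatic side effect score drawn from the DILIps (drug-induced liver injury prediction) training data set; call rule not given here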;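 on HepSE cholelithiasis: hepatic side effect score for cholelithiasis, drawn from the DILIps training data for predicting drug-induced liver injury; call rule not given here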;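 on HepSE cirrhosis: cirrhosis hepatic side effect score taken from the DILIps (drug-induced liver injury prediction) training set; call rule not given here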;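 on HepSE elevated liver function tests: hepatic side effect score for raised liver function tests, as recorded in the DILIps training set used for predicting drug-induced liver injury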; on HepSE hepatic failure: call rule not given here
[4] = test system: Hepatotoxicity; remark: listed apart in the source;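 on HepSE bilirubinemia: bilirubinemia hepatic side effect score drawn from the DILIps training data, a prediction system for drug-induced liver injury; call rule not given here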;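 on HepSE cholecystitis: Cholecystitis-related hepatic side effect score drawn from the DILIps (drug-induced liver injury prediction) training data set; call rule not given here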;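 on HepSE cholelithiasis: hepatic side effect score for cholelithiasis, drawn from the DILIps training data for predicting drug-induced liver injury; call rule not given here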;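 on HepSE cirrhosis: cirrhosis hepatic side effect score taken from the DILIps (drug-induced liver injury prediction) training set; call rule not given here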;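 on HepSE elevated liver function tests: hepatic side effect score for raised liver function tests, as recorded in the DILIps training set used for predicting drug-induced liver injury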; on HepSE hepatic failure: call rule not given here
[5] = test system: Hepatotoxicity; remark: listed apart in the source; on HepSE hepatic failure: call rule not given here
[6] = test system: Hepatotoxicity; remark: listed apart in the source; on HepSE hepatic failure: call rule not given here
[7] = test system: Hepatotoxicity; remark: listed apart in the source
[8] = test system: Hepatotoxicity; remark: listed apart in the source
[9] = test system: Hepatotoxicity; remark: listed apart in the source
[10] = test system: Hepatotoxicity; remark: listed apart in the source
[11] = test system: Hepatotoxicity; remark: listed apart in the source
[12] = test system: Hepatotoxicity; remark: listed apart in the source
[13] = test system: Hepatotoxicity; remark: listed apart in the source
[14] = test system: Hepatotoxicity; remark: listed apart in the source

O=C1CC2(CCCC2)CC(=O)N1CCCCN1CCN(c2ncccn2)CC1 [BUSPIRONE]
0: HepSE_bilirubinemia [1] | HepSE_cholecystitis [2] | HepSE_cholelithiasis [3] | HepSE_cirrhosis [4] | HepSE_elevated liver function tests [5] | HepSE_hepatic failure [6] | HepSE_hepatic necrosis [7] | HepSE_hepatitis [8] | HepSE_hepatomegaly [9] | HepSE_jaundice [10] | HepSE_liver disease [11] | HepSE_liver fatty [12] | HepSE_liver function tests abnormal [13] | HepSE_Combined Scores [14]

CS(=O)(=O)OCCCCOS(C)(=O)=O [BUSULFAN]
0: HepSE_cholecystitis [2] | HepSE_cholelithiasis [3] | HepSE_cirrhosis [4] | HepSE_elevated liver function tests [5] | HepSE_hepatic failure [6] | HepSE_hepatic necrosis [7] | HepSE_liver disease [11] | HepSE_liver fatty [12] | HepSE_liver function tests abnormal [13]
4: HepSE_Combined Scores [14]
1: HepSE_bilirubinemia [1] | HepSE_hepatitis [8] | HepSE_hepatomegaly [9] | HepSE_jaundice [10]

CN(Cc1ccc(C(C)(C)C)cc1)Cc1cccc2ccccc12 [BUTENAFINE]
0: HepSE_bilirubinemia [1] | HepSE_cholecystitis [2] | HepSE_cholelithiasis [3] | HepSE_cirrhosis [4] | HepSE_elevated liver function tests [5] | HepSE_hepatic failure [6] | HepSE_hepatic necrosis [7] | HepSE_hepatitis [8] | HepSE_hepatomegaly [9] | HepSE_jaundice [10] | HepSE_liver disease [11] | HepSE_liver fatty [12] | HepSE_liver function tests abnormal [13] | HepSE_Combined Scores [14]

Clc1ccc(CCC(Cn2ccnc2)Sc2c(Cl)cccc2Cl)cc1 (stereo not drawn) [BUTOCONAZOLE]
0: HepSE_bilirubinemia [1] | HepSE_cholecystitis [2] | HepSE_cholelithiasis [3] | HepSE_cirrhosis [4] | HepSE_elevated liver function tests [5] | HepSE_hepatic failure [6] | HepSE_hepatic necrosis [7] | HepSE_hepatitis [8] | HepSE_hepatomegaly [9] | HepSE_jaundice [10] | HepSE_liver disease [11] | HepSE_liver fatty [12] | HepSE_liver function tests abnormal [13] | HepSE_Combined Scores [14]

Oc1ccc2c(c1)[C@@]13CCCC[C@@]1(O)[C@@H](C2)N(CC1CCC1)CC3 [BUTORPHANOL]
0: HepSE_bilirubinemia [1] | HepSE_cholecystitis [2] | HepSE_cholelithiasis [3] | HepSE_cirrhosis [4] | HepSE_elevated liver function tests [5] | HepSE_hepatic failure [6] | HepSE_hepatic necrosis [7] | HepSE_hepatitis [8] | HepSE_hepatomegaly [9] | HepSE_jaundice [10] | HepSE_liver disease [11] | HepSE_liver fatty [12] | HepSE_liver function tests abnormal [13] | HepSE_Combined Scores [14]

C=CCN1C[C@H](C(=O)N(CCCN(C)C)C(=O)NCC)C[C@@H]2c3cccc4[nH]cc(c34)C[C@H]21 [CABERGOLINE]
1: HepSE_liver function tests abnormal [13] | HepSE_Combined Scores [14]
0: HepSE_bilirubinemia [1] | HepSE_cholecystitis [2] | HepSE_cholelithiasis [3] | HepSE_cirrhosis [4] | HepSE_elevated liver function tests [5] | HepSE_hepatic failure [6] | HepSE_hepatic necrosis [7] | HepSE_hepatitis [8] | HepSE_hepatomegaly [9] | HepSE_jaundice [10] | HepSE_liver disease [11] | HepSE_liver fatty [12]

Cn1c(=O)c2c(ncn2C)n(C)c1=O [CAFFEINE]
0: HepSE_bilirubinemia [1] | HepSE_cholecystitis [2] | HepSE_cholelithiasis [3] | HepSE_cirrhosis [4] | HepSE_elevated liver function tests [5] | HepSE_hepatic failure [6] | HepSE_hepatic necrosis [7] | HepSE_hepatitis [8] | HepSE_hepatomegaly [9] | HepSE_jaundice [10] | HepSE_liver disease [11] | HepSE_liver fatty [12] | HepSE_liver function tests abnormal [13] | HepSE_Combined Scores [14]

C=C1/C(=C\C=C2/CCC[C@]3(C)[C@@H]([C@H](C)/C=C/[C@@H](O)C4CC4)CC[C@@H]23)C[C@@H](O)C[C@@H]1O [CALCIPOTRIENE]
0: HepSE_bilirubinemia [1] | HepSE_cholecystitis [2] | HepSE_cholelithiasis [3] | HepSE_cirrhosis [4] | HepSE_elevated liver function tests [5] | HepSE_hepatic failure [6] | HepSE_hepatic necrosis [7] | HepSE_hepatitis [8] | HepSE_hepatomegaly [9] | HepSE_jaundice [10] | HepSE_liver disease [11] | HepSE_liver fatty [12] | HepSE_liver function tests abnormal [13] | HepSE_Combined Scores [14]

C=C1/C(=C\C=C2/CCC[C@]3(C)[C@@H]([C@H](C)CCCC(C)(C)O)CC[C@@H]23)C[C@@H](O)C[C@@H]1O [CALCITRIOL]
0: HepSE_bilirubinemia [1] | HepSE_cholecystitis [2] | HepSE_cholelithiasis [3] | HepSE_cirrhosis [4] | HepSE_elevated liver function tests [5] | HepSE_hepatic failure [6] | HepSE_hepatic necrosis [7] | HepSE_hepatitis [8] | HepSE_hepatomegaly [9] | HepSE_jaundice [10] | HepSE_liver disease [11] | HepSE_liver fatty [12] | HepSE_liver function tests abnormal [13] | HepSE_Combined Scores [14]

CCCCCOC(=O)Nc1nc(=O)n([C@@H]2O[C@H](C)[C@@H](O)[C@H]2O)cc1F [CAPECITABINE]
7: HepSE_Combined Scores [14]
1: HepSE_bilirubinemia [1] | HepSE_hepatic failure [6] | HepSE_hepatitis [8] | HepSE_hepatomegaly [9] | HepSE_jaundice [10] | HepSE_liver fatty [12] | HepSE_liver function tests abnormal [13]
0: HepSE_cholecystitis [2] | HepSE_cholelithiasis [3] | HepSE_cirrhosis [4] | HepSE_elevated liver function tests [5] | HepSE_hepatic necrosis [7] | HepSE_liver disease [11]

C[C@@H]1NC(=O)[C@@H](N)CNC(=O)[C@H](C2CCNC(=N)N2)NC(=O)/C(=C/NC(N)=O)NC(=O)[C@H](CNC(=O)CC(N)CCCN)NC1=O.N=C1NCCC([C@@H]2NC(=O)/C(=C/NC(N)=O)NC(=O)[C@H](CNC(=O)CC(N)CCCN)NC(=O)[C@H](CO)NC(=O)[C@@H](N)CNC2=O)N1 (stereo partly drawn) [CAPREOMYCIN] (H-[Dap]S[Dap](ξβ3hOrn)[ΔAla(Z-3-ureido)][X2]; lactam 1-C)
0: HepSE_bilirubinemia [1] | HepSE_cholecystitis [2] | HepSE_cholelithiasis [3] | HepSE_cirrhosis [4] | HepSE_elevated liver function tests [5] | HepSE_hepatic failure [6] | HepSE_hepatic necrosis [7] | HepSE_hepatitis [8] | HepSE_hepatomegaly [9] | HepSE_jaundice [10] | HepSE_liver fatty [12] | HepSE_liver function tests abnormal [13]
1: HepSE_liver disease [11] | HepSE_Combined Scores [14]

C[C@H](CS)C(=O)N1CCC[C@H]1C(=O)O [CAPTOPRIL]
0: HepSE_bilirubinemia [1] | HepSE_cholecystitis [2] | HepSE_cholelithiasis [3] | HepSE_cirrhosis [4] | HepSE_elevated liver function tests [5] | HepSE_hepatic failure [6] | HepSE_hepatic necrosis [7] | HepSE_hepatomegaly [9] | HepSE_liver disease [11] | HepSE_liver fatty [12] | HepSE_liver function tests abnormal [13]
1: HepSE_hepatitis [8] | HepSE_jaundice [10]
2: HepSE_Combined Scores [14]

C[N+](C)(C)CCOC(N)=O.[Cl-] [CARBACHOL]
0: HepSE_bilirubinemia [1] | HepSE_cholecystitis [2] | HepSE_cholelithiasis [3] | HepSE_cirrhosis [4] | HepSE_elevated liver function tests [5] | HepSE_hepatic failure [6] | HepSE_hepatic necrosis [7] | HepSE_hepatitis [8] | HepSE_hepatomegaly [9] | HepSE_jaundice [10] | HepSE_liver disease [11] | HepSE_liver fatty [12] | HepSE_liver function tests abnormal [13] | HepSE_Combined Scores [14]

NC(=O)N1c2ccccc2C=Cc2ccccc21 [CARBAMAZEPINE]
0: HepSE_bilirubinemia [1] | HepSE_cholecystitis [2] | HepSE_cholelithiasis [3] | HepSE_cirrhosis [4] | HepSE_elevated liver function tests [5] | HepSE_hepatic necrosis [7] | HepSE_hepatomegaly [9] | HepSE_liver disease [11] | HepSE_liver fatty [12]
1: HepSE_hepatic failure [6] | HepSE_hepatitis [8] | HepSE_jaundice [10] | HepSE_liver function tests abnormal [13]
4: HepSE_Combined Scores [14]

CC1(C)S[C@@H]2[C@H](NC(=O)C(C(=O)Oc3ccc4c(c3)CCC4)c3ccccc3)C(=O)N2[C@H]1C(=O)[O-].[Na+] (stereo partly drawn) [CARBENICILLIN INDANYL SODIUM]
0: HepSE_bilirubinemia [1] | HepSE_cholecystitis [2] | HepSE_cholelithiasis [3] | HepSE_cirrhosis [4] | HepSE_elevated liver function tests [5] | HepSE_hepatic failure [6] | HepSE_hepatic necrosis [7] | HepSE_hepatitis [8] | HepSE_hepatomegaly [9] | HepSE_jaundice [10] | HepSE_liver disease [11] | HepSE_liver fatty [12] | HepSE_liver function tests abnormal [13] | HepSE_Combined Scores [14]

CC1(C)S[C@@H]2[C@H](NC(=O)C(C(=O)O)c3ccccc3)C(=O)N2[C@H]1C(=O)O (stereo partly drawn) [CARBENICILLIN]
0: HepSE_bilirubinemia [1] | HepSE_cholecystitis [2] | HepSE_cholelithiasis [3] | HepSE_cirrhosis [4] | HepSE_elevated liver function tests [5] | HepSE_hepatic failure [6] | HepSE_hepatic necrosis [7] | HepSE_hepatitis [8] | HepSE_hepatomegaly [9] | HepSE_jaundice [10] | HepSE_liver disease [11] | HepSE_liver fatty [12] | HepSE_liver function tests abnormal [13] | HepSE_Combined Scores [14]

CN(C)CCOC(c1ccc(Cl)cc1)c1ccccn1 (stereo not drawn) [CARBINOXAMINE]
0: HepSE_bilirubinemia [1] | HepSE_cholecystitis [2] | HepSE_cholelithiasis [3] | HepSE_cirrhosis [4] | HepSE_elevated liver function tests [5] | HepSE_hepatic failure [6] | HepSE_hepatic necrosis [7] | HepSE_hepatitis [8] | HepSE_hepatomegaly [9] | HepSE_jaundice [10] | HepSE_liver disease [11] | HepSE_liver fatty [12] | HepSE_liver function tests abnormal [13] | HepSE_Combined Scores [14]
